Measured values taken from patent US9101620B2, “Polymorph of 3-(substituteddihydroisoindolinone-2-yl)-2,6-dioxopiperidine, and pharmaceutical compositions thereof” (Nanjing Cavendish Bio-Engineering Technology Co., Ltd., priority 2009, dated 2015).

Columns and labels:
Type in all cases: physicochemical
[1] = Oxidation destruction (30% H2O2), related substances by HPLC; conditions: for Major impurity, peak tR5.649-5.660 / Major impurity, peak tR10.372-10.401 / Major impurity, peak tR32.279-32.318 / Major impurity, peak tR35.063-35.098 / Total impurities generated by oxidation destruction: 30% H2O2, room temperature, 2 hour; for Chemical stability (in words): oxidating condition / oxidation destroy experiment
Experimental: (§1) Oxidation destruction: 50 mg of sample weighted accurately was added into measuring flask of 100 mL, and 10 mL 30% H2O2 was added. After standing at room temperature for 2 hour, the mixture was diluted with mobile phase to scale and shook to be homogeneous, and determined by HPLC.
(§2) HPLC conditions and system applicability: octadecylsilane bonded silica as the filler; 0.01 mol/L of potassium dihydrogen phosphate (adjusted to pH 3.5 by phosphoric acid)-methanol-acetonitrile (80:15:5) as the mobile phase; detection wavelength was 240 nm; the number of theoretical plates should be not less than 2000, calculated according to the peak of lenalidomide. The resolution of the peak of 3-(4-amino-1-oxo-1,3-dihydro-2H-isoindole-2-yl)-piperidine-2,6-dione from the peaks of adjacent impurities should meet requirements.
(§3) Determination method: sample was dissolved in mobile phase to be the solution containing 0.5 mg per 1 mL. 20 μL of such solution was injected into liquid chromatograph and chromatogram was recorded until fourfold the retention time of major component peak. If there were impurities peaks in the chromatogram of sample solution, total impurities and sole impurity were calculated by normalization method on the basis of peak area.

[2] = Destruction test: impurities in raw materials before destruction (HPLC); conditions: for Total impurities in raw materials before destruction: HPLC peak area normalization
Source text: The methods of destruction experiment of the Polymorph I of this invention (hereinafter referred to as “Polymorph I”) contrasting with the Polymorph A and B of 3-(4-amino-1-oxo-1,3-dihydro-2H-isoindole-2-yl)-piperidine-2,6-dione prepared by the method in CN 1871003A (hereinafter referred to as “Polymorph A” and “polymorph B”) and results of stability are followed:
as §2, §3

[3] = Acid destruction (0.1 mol/L HCl), related substances by HPLC; conditions: for Major impurity, peak tR4.717-4.737 / Major impurity, peak tR7.367-7.381 / Major impurity, peak tR11.067-11.100 / Total impurities generated by 0.1 mol/L acid destruction for 1 hour: 0.1 mol/L HCl, room temperature, 1 hour; for Chemical stability (in words): acid condition / 0.1 mol/L diluted HCl solution
Experimental: as §1, with “Acid” for “Oxidation”, “0.1 mol/L HCl solution” for “30% H2O2”, “1” for “2”, “hour, an equal amount of 0.1 mol/L NaOH solution was added for neutralization. Then” for “hour,”
as §2, §3

Row | Major impurity, peak tR5.649-5.660 [1] | Major impurity, peak tR10.372-10.401 [1] | Major impurity, peak tR32.279-32.318 [1] | Major impurity, peak tR35.063-35.098 [1] | Total impurities generated by oxidation destruction [1] | Chemical stability (in words) [1] | Major impurity, peak tR5.872-5.948 [2] | Major impurity, peak tR6.847-6.855 [2] | Major impurity, peak tR10.961-11.165 [2] | Total impurities in raw materials before destruction [2] | Major impurity, peak tR4.717-4.737 [3] | Major impurity, peak tR7.367-7.381 [3] | Major impurity, peak tR11.067-11.100 [3] | Total impurities generated by 0.1 mol/L acid destruction for 1 hour [3] | Chemical stability (in words) [3] | Structure (SMILES)
1 | 0.39% | 0.08% | 0.08% | 0.14% | impurities: 0.82% | poor chemical stability | 0.01% | 0.01% | 0.04% | impurities: 0.06% | 0.33% | 0.72% | 0.04% | impurities: 1.13% | poor chemical stability | Nc1cccc2c1CN(C1CCC(=O)NC1=O)C2=O (single isomer, unassigned) [Polymorph A, 3-(4-amino-1-oxo-1,3-dihydro-2H-isoindole-2-yl)-piperidine-2,6-dione]
2 | 0.36% | 0.11% | 0.10% | 0.13% | impurities: 0.89% | poor chemical stability | 0.01% | 0.01% | 0.05% | impurities: 0.07% | 0.33% | 0.72% | 0.04% | impurities: 1.22% | poor chemical stability | Nc1cccc2c1CN(C1CCC(=O)NC1=O)C2=O (single isomer, unassigned) [Polymorph B, 3-(4-amino-1-oxo-1,3-dihydro-2H-isoindole-2-yl)-piperidine-2,6-dione]
